Test [1] relates to Androgen-induced PSA-luciferase (LNCaP cells). Kind of test: Androgen-induced PSA (6.1 kb)-luciferase reporter assay in LNCaP cells. The test is classed as cell-based. The following applies: Homo sapiens, R1881 (1 nM) 24 h. On the procedure: To determine the IC50, treatments were normalized to the maximum activity with androgen-induction (in the absence of test compounds, vehicle only) (Table 1).
Luciferase Assay: Lysates were thawed on ice then collected into V-bottom 96-well tissue culture plates. Lysates were centrifuged at 4° C. for 5 minutes at 4000 rpm. To measure luminescence of LNCaP cell lysates the Firefly Luciferase Assay System (Promega) was employed, according to manufacturer's protocol.
Comparisons between treatment and control groups were compared using Two-Way ANOVA with post-hoc Dunnett's and Tukey's tests. Differences were considered statistically significant at P values less than 0.05. Densitometric quantification of relative AR levels was determined by Image.

The test system of test [2] is reporter constructs regulated by CMV promoter or AP-1 binding sites. Nature of the test: Control reporter constructs (CMV promoter, AP-1 binding sites). It counts as cell-based. From the text: 2010, and Myung et al., J Clin Invest. 2013.
A further test concerns PSA protein. Kind of test: Western blot of PSA protein in LNCaP lysates. The following applies: ATRA (10 μM), R1881 (1 nM) 24 h. It counts as cell-based. Background: A western blot detects proteins with antibodies after separation by electrophoresis.
Another test relates to LN95-D3 cells. Nature of the test: Cell cycle analysis of LN95-D3 cells. It counts as cell-based. The note with it: 1.5% charcoal-stripped serum. On the procedure: Flow cytometry: Fixed cells were probed with anti-BrdU-FITC antibody (BD Biosciences) and stained with 7AAD (Sigma). Data was acquired on a FACSCalibur flow cytometer (BD Biosciences) with CellQUEST Pro and later analyzed using FlowJo V10 software.
After incubating with the compounds, cells were labelled with BrdU for 2 h and then processed for flow cytometry.

Test [3] relates to AR transcriptional activity (PSA (6.1 kb)-luciferase, LNCaP cells). Nature of the test: PSA (6.1 kb)-luciferase assay with Pin1 inhibitors and AR NTD inhibitors (Examples 36-37). The following applies: for IC50: Homo sapiens, 24 h. The test is classed as cell-based. On the procedure:
Statistical analyses: Statistical significance was determined with GraphPad Prism 8 software using two-way ANOVA with Dunnett's multiple comparisons test unless indicated otherwise; *P<0.05, **P<0.01, ***P<0.001; ns, not significant.
Data shown in Figures are the means±SE from 4 independent experiments.

The next test concerns LN95 cells. Kind of test: Senescence-associated β-gal staining of LN95 cells. The following applies: 1.5% charcoal-stripped serum, 3 days. It counts as cell-based. On the procedure: β-galactosidase staining: Cells grown in chamber slides and treated with compounds were fixed at room temperature with 2% formaldehyde/0.2% glutaraldehyde, and then incubated at 37° C. with fresh β-gal staining solution (Cell Signaling) titrated to pH 6.0. Staining was optimal after incubating the slides overnight for 16-18 hours.
Results shown are representative of 3 independent experiments.

A further test deals with C4-2B-MDVR. Nature of the test: Colony formation, C4-2B-MDVR. The test is classed as cell-based, human.
Test [4] deals with AR-positive breast cancer cell lines. Nature of the test: Cell proliferation (BrdU) and viability (alamarBlue) of breast cancer cell lines. The note with it: BrdU 4 days (enzalutamide 10 μM, EPI-002 35 μM); alamarBlue 2 or 3 days. It counts as cell-based. (Alamar Blue is a resazurin reagent that responds to reducing activity.)
Experimental: Cell Proliferation and Viability Assay: Each breast cancer cell line was plated at 5,000 cells per well in a 96-well plate in culture medium containing 5% or 10% fetal bovine serum. […] For proliferation assay, cells were treated for 4 days and labeled with BrdU for 2 hours. Incorporation of BrdU was measured by enzyme-linked immunosorbent assay (ELISA; Cell Proliferation ELISA, BrdU (colorimetric) from Roche). For cell viability assays, alamarBlue was used for assess cell viability after 2 or 3 days of treatment.
BrdU incorporation was used to assess cell proliferation.
AlamarBlue was used to assess cell viability. Results are presented as mean±SEM (n=3 except n=6 for LNCaP).
The test system of the next test is LNCaP95 cells. Kind of test: γH2AX DNA damage in LNCaP95 cells with or without irradiation. The test is classed as cell-based. The following applies: ENZ 5 μM, with or without irradiation (4Gy), 48 h. On the procedure: Further, cells were labelled for γH2AX and 7AAD and analyzed by flow cytometry (FIG. 12B). The percentage of cells containing above 10 γH2AX foci (mean±SD from three independent experiments) are represented in FIG. 12C.
Flow Cytometry: Cell cycle analysis was conducted by flow cytometry using BrdU-FITC and 7AAD. DNA damage was analyzed using γH2AX antibody (CST) and 7AAD. Cells were analyzed on FACScalibur flow cytometer.
Immunofluorescence staining: γH2AX antibody (Millipore mouse), Alexa488 anti-mouse antibody were used for staining. Cells were analyzed on Axio observer (×20 magnification) equipped with epitome 2.
Statistical analysis: Graphs represent the means±SEM from three independent experiments performed with three technical replicates. Statistical significance was determined using GraphPad Prism software with a one-way ANOVA; *P<0.05, **P<0.01, ***P<0.001, ****P<0.0001.

Test [5] deals with mCRPC patients with bone metastases. The following applies: cited from earlier work.

The term IC50 denotes the concentration that gives 50% inhibition. A higher IC50 goes with weaker potency in that assay.

Consider `CC(C)(c1ccc(OCC(=O)CNS(C)(=O)=O)cc1)c1cc(Cl)c(OCCCCl)c(Cl)c1` [AA31, N-(3-(4-(2-(3,5-dichloro-4-(3-chloropropoxy)phenyl)propan-2-yl)phenoxy)-2-oxopropyl)methanesulfonamide], for which, in test [1], 51 nM corresponded to half-maximal inhibition (IC50). For `CC(C)(c1ccc(OCC(=O)CNS(C)(=O)=O)cc1)c1cc(Cl)c(OCCCl)c(Cl)c1` [AA33], the IC50 in test [1] is 38 nM. On the same count and under the same terms, the value for `CC(O)(CCl)COc1c(Cl)cc(C(C)(C)c2ccc(OCC(=O)CNS(C)(=O)=O)cc2)cc1Cl` (stereo not drawn) [AA52] was 74 nM; that for `COCC(=O)COc1ccc(C(C)(C)c2cc(Cl)c(OCC(O)CCl)c(Cl)c2)cc1` (stereo not drawn) [AA56] was 344 nM; that for `CC(=O)C(=O)Nc1ccc(C(C)(C)c2cc(Cl)c(OCCCCl)c(Cl)c2)cc1` [AA85] was 368 nM. For the compound `CC1=C(/C=C/C(C)=C/C=C/C(C)=C/C(=O)O)C(C)(C)CCC1` [ATRA, all-trans retinoic acid], in [2], the “inhibitory effects on CMV promoter or AP-1 reporter constructs” value was “No inhibitory effects”. Moreover, the “androgen-induced expression of PSA protein” value in the test on PSA protein was “decreased”. In addition, the cell cycle effect entry with LN95-D3 cells was “arrested cells in G1 and decreased the S phase population in a dose-dependent manner”. `CC(C)(c1ccc(OC[C@H](O)CO)cc1)c1cc(Cl)c(OC[C@H](O)CCl)c(Cl)c1` [Compound 1a] returned an IC50 in test [1] of 1410 nM. The same measure, in the same setting: the value for `COC[C@@H](O)COc1ccc(C(C)(C)c2cc(Cl)c(OC[C@H](O)CCl)c(Cl)c2)cc1` [Compound 5a] was 1030 nM; that for `CC(C)(c1ccc(OC[C@H](O)Cn2ccnc2)cc1)c1cc(Cl)c(OC[C@H](O)CCl)c(Cl)c1` [Compound 9a] was 3120 nM; that for `CC(C)(c1ccc(OC[C@H](O)CN2CCOCC2)cc1)c1cc(Cl)c(OC[C@H](O)CCl)c(Cl)c1` [Compound 11a] was 1050 nM. In [1], `CC(C)(c1ccc(OC[C@H](O)CN)cc1)c1cc(Cl)c(OC[C@H](O)CCl)c(Cl)c1` [Compound 12a, (R)-1-amino-3-(4-(2-(3,5-dichloro-4-((S)-3-chloro-2-hydroxypropoxy)phenyl)propan-2-yl)phenoxy)propan-2-ol] showed an IC50 of 2260 nM. Compared with the last compound, the IC50 is about 2.2-fold higher. Take `CC1=C(/C=C/C(C)=C/C=C/C(C)=C\C(=O)O)C(C)(C)CCC1` [Compound 13CisRA]: in test [2], the “inhibitory effects on CMV promoter or AP-1 reporter constructs” value was “No inhibitory effects”. Turning to `CC(C)(c1ccc(OC[C@H](O)CNS(C)(=O)=O)cc1)c1cc(Cl)c(OC[C@H](O)CCl)c(Cl)c1` [Compound 13a], the figures for the IC50 in [1] and in [3] were 1050 nM and 740 ± 1200 nM, respectively. Take `CCS(=O)(=O)C[C@@H](O)COc1ccc(C(C)(C)c2cc(Cl)c(OC[C@H](O)CCl)c(Cl)c2)cc1` [Compound 14a]: 950 nM corresponded to half-maximal inhibition in [1] (IC50). In other words, the sub-micromolar range. On to `CC(C)(c1ccc(OC[C@H](O)CO)cc1)c1ccc(OC[C@H](O)CCl)cc1` [EPI-002], for which, in the test with LN95 cells, the “percentage of β-gal-positive cells, combination with ATRA” value is reported as “synergy”. Besides, in the test with LN95-D3 cells, the “combination with ATRA: G1 arrest and decrease of S phase population” value is on record as “synergistic”. This compound also showed an IC50 in test [3] of 7900 ± 1200 nM. Further, the “decrease in IC50 values in the presence of ATRA” value in test [3] (PSA (6.1 kb)-luciferase) was found to be 2 fold. Besides, the “effect of combination with ATRA on inhibiting AR transcriptional activity” value in [3] (PSA (6.1 kb)-luciferase, R1881 (1 nM)) is recorded as “synergistic effect”. For the same compound, the “colony formation, combination with Enzalutamide” value with C4-2B-MDVR was “reduced colony formation”. Also, the “cell proliferation and viability” value in test [4] is listed as “significantly inhibited”. `CNC(=O)c1ccc(N2C(=S)N(c3ccc(C#N)c(C(F)(F)F)c3)C(=O)C2(C)C)cc1F` [Enzalutamide, enzalutamide]: in the test on LNCaP95 cells, the “percentage of cells containing above 10 γH2AX foci” value is recorded as “no effect”. The “combination with ATRA: G1 arrest and decrease of S phase population” value in the test with LN95-D3 cells was “not”.

Consider `[Cl][223Ra][Cl]` [radium 223 dichloride], for which the “increase overall survival (OS)” value in test [5] is “approximately 3 months”.

The values are drawn from patent US12109179B2, “Pharmaceutical compositions and combinations comprising inhibitors of the androgen receptor and uses thereof” (ESSA Pharma Inc., priority 2019, dated 2024).
